Reference: patent US9497964B2, “Synergistic activity of peracetic acid and at least one SAR inducer for the control of pathogens in and onto growing plants” (AGRI-NEO INC., priority 2010, dated 2016)

Tested on: Fusarium patch disease
Assay: Fusarium patch on turfgrass in British Columbia Canada
Assay type: in vivo
Conditions: for % disease control vs untreated / mean # disease spots/plot: 0.6 kg/ha
Protocol: Creeping bentgrass was naturally inoculated with Fusarium patch disease. Four plots were assessed, and each plot was four square meters of mature turf. Four replicates were used per treatment. […] Azoxystrobin is a broad-spectrum fungicide with a single-site mode of action: it binds very tightly to the Qo site of Complex III in the mitochondrial electron transport chain of fungal pathogens. Thus the disease pest is prevented from generating ATP, so it dies for lack of metabolic energy. Azoxystrobin is itself extracted from certain Eastern European mushrooms reputed for their resistance to disease induced by other fungi. Azoxystrobin, marketed under the brand name of Heritage, is one of the commercial standards used in the management of Fusarium Patch disease on turf grass. It was against this reference that the efficacy of […] in controlling this pathogen was compared and contrasted.
Spray volume was one thousand liters per hectare. Three product applications were made. The interval between applications was 14 days.
Observations (disease symptoms, leaf damage due to product, and grass vigour) were made at the following intervals: • Immediately prior to each application. • Nine days after the last (third) application. • Sixty days after the last (third) application. • Ninety days after the last (third) application.

CO/C=C(/C(=O)OC)c1ccccc1Oc1cc(Oc2ccccc2C#N)ncn1 [Azoxystrobin]
% disease control vs untreated (Spring): 17% | mean # disease spots/plot (Spring): 10 | % disease control vs untreated (Winter): 31% | mean # disease spots/plot (Winter): 9 | reduction of disease incidence relative to the water-sprayed inoculated control (Azoxystrobin): 15-30%
